# From patent US20240426776A1, “RAPID DIFFERENTIATION OF ANTIBIOTIC-SUSCEPTIBLE AND -RESISTANT BACTERIA THROUGH MEDIATED EXTRACELLULAR ELECTRON TRANSFER” (priority 2021, published 2024)
# Values joined by “and” are separate entries in the source; they are usually repeats but may differ in a detail not shown here. Equal entries are not always repeated. Where two headings read alike, the source gives them in different places.
# Assays:
# [1] = test system: Escherichia coli (strains 61 and 77); test: Microdilution antibiotic susceptibility assay (MIC, CLSI guidelines); assay type: cell-based; conditions: for MIC: Escherichia coli, MH media, 16-18 h, 37° C., read-out: estimated minimum inhibitory concentration from this study
# Method: (§1) Testing for S. aureus susceptibility to oxacillin differed with incubation at 30° C. for 18-24 h in MH media supplemented with 2% NaCl.
# (§2) Values listed in Table 2 below include the estimated minimum inhibitory concentration from this study (μg/mL), the determination of(S) sensitive or (R) resistant microbes according to CLSI criteria, and the CLSI guidelines (μg/mL) for the species being tested. Empty cells were not evaluated.
# [2] = test system: Acinetobacter baumannii (strains 35, 78, 83, and 102); test: as above; assay type: cell-based; conditions: for MIC: Acinetobacter baumannii, MH media, 16-18 h, 37° C., read-out: estimated minimum inhibitory concentration from this study
# Method: as §1, §2
# [3] = test system: Gram-negative 1 AR55 and Gram-negative 2 AR58; test: Standard procedure confirming blinded test (susceptibility, MIC, analysis time); assay type: cell-based; design: key to Standard procedure susceptibility or resistance (second symbol of cell): S: The standard procedure established susceptibility or resistance; R: The standard procedure established susceptibility or resistance
# Method: Both Gram-positive strains were correctly classified using 2×(12 μg/mL oxacillin) in <120 min (97±45 min and 103±33 min). The Gram-negative strains were also correctly classified after increasing concentrations of imipenem from 2× to 20×(12 to 120 μg/mL imipenem). […] These phenotypic results were confirmed with results of standard procedure known to those skilled in the art and are included in Table 4 below, wherein READAS(S) susceptibility was defined by an ASIn≥0.4; (R) resistant was defined by an ASIn<0.4; analysis time shown in minutes. The standard procedure established susceptibility or resistance, MIC in μg/mL, and analysis time shown in hours.
# [4] = test system: Acinetobacter baumannii (strains 35, 78, 83, and 102); test: READAS electrochemical current response with PMS mediator (ASIn); assay type: cell-based; conditions: for ASIn (antibiotic susceptibility index), single replicates: ASI2, 15 μM PMS, 0.1 OD600
# Method: (§3) For initial quality control, cyclic voltammetry scan was recorded from 0.5 V to −0.5 V then back to 0.5 V using the potentiostat 13 configuration. The potentiostat controls the working electrode voltage relative to the reference electrode.
# (§4) For antibiotic susceptibility experiments, the working electrode 6 was controlled at 0 VAg/AgCl. The current can also be measured and analyzed for determining resistance/susceptibility of pathogens to drugs (e.g., antibiotics) using other devices such as a multiplexer or any interface instrument that can receive one or more data inputs and forward it to an output for analysis and feedback. In particular, such one or more data inputs can be directed to a processor, signal processor, computer-based system, etc. and thereafter/correspondingly any such interface instrument can receive instructions from, such processing instruments as better detailed in the description for the embodiment of FIG. 14 below. It is also to be noted that any induced currents undergo a decision methodology that can be interpreted by such a configured processor, signal processor, computer-based system, etc. for aiding in the determination of antibiotic susceptibility/resistance, such as, the methodology better detailed in the description of FIG. 6 below.
# (§5) Turning back to the discussion for FIG. 1B but also FIG. 1A, an initial baseline was established in the MH media, PMS, and antibiotic mixture for 50-60 min before inoculating the electrochemical cell with a bacteria cell 2. On placing the bacteria cell 2 (again see FIG. 1A) into the electrochemical cell 10, the bacteria cell 2 undergoes metabolic reactions and generates electrons 4 through metabolic processes, as was generally described above. The electron transfer mediator used herein, e.g., PMS, thereafter, operates as an electron carrier in solution 3, and provides generated electrons 4 to the working electrode 6 (herein was aided by stirring mechanism 21, as shown in FIG. 1B). The working electrode 6 thus accepts the electrons provided by the reduced mediators (PMSr) so as to generate currents and returns the mediator back to its oxidized form ([…]) to keep the monitoring of respiration induced currents if viable.
# (§6) Tests disclosed in the example embodiments herein for the purpose of illustration were conducted with an inoculum of 0.1 OD600. A cell density equating to 0.1 OD600 was determined for each species by serial dilution. Briefly, overnight cultures were adjusted to an OD600 of 0.1 and then serially diluted (10^0 to 10^−11) in a multi-well plate before transferring 10 μL of each dilution to separate TSA plates and grown overnight for 16-18 h. The colony forming units per mL (CFU/mL) were quantified using a drop plate method as known to those skilled in the art. Each measurement was replicated at least four times.
# (§7) For performing example experimental tests disclosed in the embodiments herein for further reduction to practice, an overnight culture of the bacteria utilized was prepared. Such a culture was prepared by transferring, for example, two colonies from an agar streak plate into 8-ml MH broth and cultured overnight in an air incubator (37° C.) rotating at 120 rpm for 16-18 h. A 5-ml aliquot of culture was adjusted to 0.5 OD600 with fresh MH media and then centrifuged at 6000 rpm (4185×g) for 8 min and the supernatant decanted. The pellet was then resuspended in 5-mL of 30° C. (S. aureus experiments) or 37° C. (all others) MH media. After resuspension, 2 mL of the culture was used to verify optical density. Finally, 500 μL of the culture was inoculated to the electrochemical cuvettes by pipette through the cap inoculation port (2.5-ml final volume in the cuvette).
# It is to be noted that a CLSI resistance breakpoint concentration is a defined concentration of a susceptible antibiotic that treats the bacteria. […]
# [5] = test system: Escherichia coli (strains 61 and 77); test: as above; assay type: cell-based; conditions: for ASIn (antibiotic susceptibility index), single replicates: ASI2, 15 μM PMS, 0.1 OD600
# Method: as §3, §4, §5, §6, §7
# The magnitude of the current response was defined as the current magnitude at the inflection point between the exponential growth and the saturated current response.
# [6] = test system: Staphylococcus aureus (strains 29213 and 43300); test: Microdilution antibiotic susceptibility assay (MIC, CLSI guidelines); assay type: cell-based; conditions: for MIC: Staphylococcus aureus, MH media, oxacillin: 30° C., 18-24 h, 2% NaCl, read-out: estimated minimum inhibitory concentration from this study
# Method: as §1, §2
# [7] = test system: Staphylococcus aureus (strains 29213 and 43300); conditions: cited from earlier work
# [8] = strain 78 (resistant), imipenem 2×CLSI resistance breakpoint
# [9] = strain 102 (susceptible), imipenem 2×CLSI resistance breakpoint
compound,measurement,setting,value
"C[C@@H](O)[C@H]1C(=O)N2C(C(=O)O)=C(SCCN=CN)C[C@H]12 [Imipenem, imipenem]",MIC,[1]; strain 61,32 µg/mL
same,MIC,[1]; strain 77,0.5 µg/mL
same,sensitive or resistant according to CLSI criteria,[1]; strain 61,R
same,sensitive or resistant according to CLSI criteria,[1]; strain 77,S
same,MIC,[2]; strain 78,32 µg/mL
same,MIC,[2]; strain 102,1 µg/mL
same,sensitive or resistant according to CLSI criteria,[2]; strain 78,R
same,sensitive or resistant according to CLSI criteria,[2]; strain 102,S
same,MIC,[3]; Gram-negative 1 (AR55),≥ 16 µg/mL
same,Standard procedure susceptibility or resistance (second symbol of cell),[3]; Gram-negative 1 (AR55),R/R
same,MIC,[3]; Gram-negative 2 (AR58),≤ 0.25 µg/mL
same,Standard procedure susceptibility or resistance (second symbol of cell),[3]; Gram-negative 2 (AR58),S/S
same,average ASI2 (average±SE),[4]; [8],0.02±0.13
same,"ASIn (antibiotic susceptibility index), single replicates",[4]; [8],0.04 and −0.5 and 0.24 and 0.19 and 0.16
same,average ASI2 (average±SE),[4]; [9],0.47±0.08
same,"ASIn (antibiotic susceptibility index), single replicates",[4]; [9],0.37 and 0.36 and 0.67 and 0.31 and 0.65
same,average ASI2 (±SE),"[5]; strain 61 (resistant), imipenem 2× (8 μg/mL)",−0.20±0.45
same,"ASIn (antibiotic susceptibility index), single replicates","[5]; strain 61 (resistant), imipenem 2× breakpoint (8 μg/mL)",0.26 and −1.52 and 0.52 and −0.08
same,average ASI2 (±SE),"[5]; strain 77 (susceptible), imipenem 2× (8 μg/mL)",0.86±0.11
same,"ASIn (antibiotic susceptibility index), single replicates","[5]; strain 77 (susceptible), imipenem 2× breakpoint (8 μg/mL)",0.98 and 0.97 and 0.96 and 0.54
"NC[C@H]1O[C@H](O[C@H]2[C@H](O)[C@@H](O[C@H]3O[C@H](CO)[C@@H](O)[C@H](N)[C@H]3O)[C@H](N)C[C@@H]2N)[C@H](N)C[C@@H]1O [Tobramycin, tobramycin]",MIC,[1]; strain 61,16 µg/mL
same,MIC,[1]; strain 77,0.5 µg/mL
same,sensitive or resistant according to CLSI criteria,[1]; strain 61,R
same,sensitive or resistant according to CLSI criteria,[1]; strain 77,S
same,MIC,[2]; strain 35,0.5 µg/mL
same,MIC,[2]; strain 83,128 µg/mL
same,sensitive or resistant according to CLSI criteria,[2]; strain 35,S
same,sensitive or resistant according to CLSI criteria,[2]; strain 83,R
same,MIC,[6]; strain 29213,1 µg/mL
same,MIC,[6]; strain 43300,128 µg/mL
same,sensitive or resistant according to CLSI criteria,[6]; strain 29213,S
same,sensitive or resistant according to CLSI criteria,[6]; strain 43300,R
same,average ASI2 (average±SE),"[4]; strain 35 (susceptible), tobramycin 2×CLSI resistance breakpoint",0.63±0.13
same,"ASIn (antibiotic susceptibility index), single replicates","[4]; strain 35 (susceptible), tobramycin 2×CLSI resistance breakpoint (32 μg/mL)",0.48 and 1 and 0.4 and 0.64
same,"ASIn (antibiotic susceptibility index), single replicates","[4]; strain 35 (susceptible), tobramycin 2×CLSI resistance breakpoint (32 μg/mL), listed as tobramycin",0.5
same,average ASI2 (average±SE),"[4]; strain 83 (resistant), tobramycin 2×CLSI resistance breakpoint",0.08±0.06
same,"ASIn (antibiotic susceptibility index), single replicates","[4]; strain 83 (resistant), tobramycin 2×CLSI resistance breakpoint (32 μg/mL)",−0.06 and −0.08 and 0.17 and 0.09 and 0.26
same,"ASIn (antibiotic susceptibility index), single replicates","[4]; strain 83 (resistant), tobramycin 2×CLSI resistance breakpoint (32 μg/mL), listed as tobramycin",0.3
same,decrease in current compared to the control,"[4]; susceptible strain (35), tobramycin 2×CLSI resistance breakpoint, 32 μg/mL, FIG. 4A",50%
same,CLSI guidelines (resistance breakpoint) for the species,[7],16 µg/mL
same,average ASI2 (±SE),"[5]; strain 61 (resistant), tobramycin 2× (32 μg/mL)",0.17±0.1
same,"ASIn (antibiotic susceptibility index), single replicates","[5]; strain 61 (resistant), tobramycin 2× breakpoint (32 μg/mL)",0.23 and 0.15 and 0.47 and 0.16 and −0.16
same,average ASI2 (±SE),"[5]; strain 77 (susceptible), tobramycin 2× (32 μg/mL)",0.62±0.15
same,"ASIn (antibiotic susceptibility index), single replicates","[5]; strain 77 (susceptible), tobramycin 2× breakpoint (32 μg/mL)",0.92 and 0.4 and 0.86 and 0.33
